The text below walks through data of patent US9550775B2, “Substituted triazolopyridines and methods of use thereof” (GENENTECH, INC., priority 2013, dated 2017).

Chain of hNav1.7 (Q15858 other isoform, or with tags, fused parts or gaps): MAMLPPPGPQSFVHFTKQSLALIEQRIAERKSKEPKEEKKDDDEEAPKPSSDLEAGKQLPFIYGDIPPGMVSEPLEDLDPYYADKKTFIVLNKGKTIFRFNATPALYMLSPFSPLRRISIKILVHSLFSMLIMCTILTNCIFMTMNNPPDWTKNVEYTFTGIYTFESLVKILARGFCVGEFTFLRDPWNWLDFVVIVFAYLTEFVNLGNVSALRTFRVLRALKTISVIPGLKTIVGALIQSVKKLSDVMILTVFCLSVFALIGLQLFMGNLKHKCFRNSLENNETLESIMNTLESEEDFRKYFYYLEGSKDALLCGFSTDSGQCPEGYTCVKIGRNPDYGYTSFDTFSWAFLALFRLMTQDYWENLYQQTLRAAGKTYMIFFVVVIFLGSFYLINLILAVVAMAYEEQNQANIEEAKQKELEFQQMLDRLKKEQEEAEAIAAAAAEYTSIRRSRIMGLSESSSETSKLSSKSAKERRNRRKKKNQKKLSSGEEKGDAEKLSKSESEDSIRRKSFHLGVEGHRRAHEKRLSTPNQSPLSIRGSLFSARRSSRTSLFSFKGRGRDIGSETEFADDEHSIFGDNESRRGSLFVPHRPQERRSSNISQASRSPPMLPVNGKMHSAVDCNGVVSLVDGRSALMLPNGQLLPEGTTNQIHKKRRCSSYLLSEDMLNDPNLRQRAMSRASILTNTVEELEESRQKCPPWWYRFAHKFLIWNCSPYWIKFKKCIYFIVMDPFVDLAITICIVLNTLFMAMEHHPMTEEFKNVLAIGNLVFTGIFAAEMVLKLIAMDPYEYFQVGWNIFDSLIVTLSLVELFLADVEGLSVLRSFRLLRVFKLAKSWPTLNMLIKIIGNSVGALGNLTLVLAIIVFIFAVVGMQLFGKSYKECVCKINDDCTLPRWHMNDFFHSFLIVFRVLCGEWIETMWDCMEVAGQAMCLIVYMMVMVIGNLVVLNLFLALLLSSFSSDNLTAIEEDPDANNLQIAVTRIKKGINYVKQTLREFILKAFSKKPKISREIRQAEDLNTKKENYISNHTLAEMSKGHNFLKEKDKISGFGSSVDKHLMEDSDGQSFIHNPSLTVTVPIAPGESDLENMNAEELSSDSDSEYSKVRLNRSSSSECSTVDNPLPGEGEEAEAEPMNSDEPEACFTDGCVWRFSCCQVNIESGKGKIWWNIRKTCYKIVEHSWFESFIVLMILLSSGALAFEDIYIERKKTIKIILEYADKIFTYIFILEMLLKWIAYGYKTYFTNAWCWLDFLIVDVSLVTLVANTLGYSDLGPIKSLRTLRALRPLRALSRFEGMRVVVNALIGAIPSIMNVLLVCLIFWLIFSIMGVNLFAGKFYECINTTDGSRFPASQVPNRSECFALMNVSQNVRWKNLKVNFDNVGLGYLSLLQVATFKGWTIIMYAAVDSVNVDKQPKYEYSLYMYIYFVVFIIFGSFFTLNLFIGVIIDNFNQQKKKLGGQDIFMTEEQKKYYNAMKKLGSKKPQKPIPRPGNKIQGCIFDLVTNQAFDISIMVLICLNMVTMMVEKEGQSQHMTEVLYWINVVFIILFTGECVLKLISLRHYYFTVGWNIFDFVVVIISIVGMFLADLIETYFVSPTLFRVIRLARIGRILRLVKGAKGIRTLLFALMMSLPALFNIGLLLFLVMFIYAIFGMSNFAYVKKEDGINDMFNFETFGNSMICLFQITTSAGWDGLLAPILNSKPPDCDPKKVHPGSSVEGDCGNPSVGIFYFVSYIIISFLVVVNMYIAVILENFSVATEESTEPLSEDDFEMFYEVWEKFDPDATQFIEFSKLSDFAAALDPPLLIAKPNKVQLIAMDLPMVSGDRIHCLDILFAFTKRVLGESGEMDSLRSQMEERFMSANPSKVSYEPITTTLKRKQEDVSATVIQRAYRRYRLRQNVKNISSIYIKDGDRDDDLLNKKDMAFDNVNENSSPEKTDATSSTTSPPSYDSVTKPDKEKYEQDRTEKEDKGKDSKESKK
Chain of hNav1.7 (Q07699 19-218 partner): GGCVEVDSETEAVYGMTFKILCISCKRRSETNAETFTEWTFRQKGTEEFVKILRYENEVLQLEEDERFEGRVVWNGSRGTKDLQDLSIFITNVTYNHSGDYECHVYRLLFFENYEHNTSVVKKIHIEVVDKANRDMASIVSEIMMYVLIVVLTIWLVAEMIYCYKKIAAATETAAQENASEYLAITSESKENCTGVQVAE

In the first test the target is human NaV1.7 (with β1 subunit) stably expressed in HEK-293 cells (Homo sapiens (Human), UniProt Q15858). Nature of the test: Patch voltage clamp electrophysiology assay (EP), inactivated-state block. In kind it is cell-based. The note with it: membrane potential held at -60 mV; read-out: affinity for the inactivated state of NaV1.7. The protocol: Patch voltage clamp electrophysiology allows for the direct measurement and quantification of block of voltage-gated sodium channels (NaV's), and allows the determination of the time- and voltage-dependence of block which has been interpreted as differential binding to the resting, open, and inactivated states of the sodium channel (Hille, B., Journal of General Physiology (1977), 69: 497-515).
Chain of human NaV1.7 (with β1 subunit) stably expressed in HEK-293 cells (Q15858 other isoform, or with tags, fused parts or gaps): as the sequence (Q15858 other isoform, or with tags, fused parts or gaps) above
Chain of human NaV1.7 (with β1 subunit) stably expressed in HEK-293 cells (Q07699 19-218 partner): as the sequence (Q07699 19-218 partner) above
Currents were recorded at 40 kHz sampling frequency, filtered at […], and stored using a Digidata-1322A analogue/digital interface with the pClamp software (Axon Instruments). Series resistance compensation was applied (60-80%). […] All statistics in this study are given as mean±SD.
The membrane potential was maintained at a voltage where inactivation of the channel is complete (which was −60 mV for both NaV1.7 and NaV1.5). The voltage is then stepped back to a very negative (Vhold=[…]) voltage for 20 ms and then a test pulse is applied to quantify the compound block. The 20 ms brief repolarization was long enough for compound-free channels to completely recover from fast inactivation, but the compound-bound channels recovered more slowly such that negligible recovery could occur during this interval. The percent decrease in sodium current following wash-on of compound was taken as the percent block of sodium channels.
With `CS(=O)(=O)Nc1nnc2cc(COc3ccc(Cl)c(Cl)c3)c(Br)cn12` [Example 55, N-(6-bromo-7-((3,4-dichlorophenoxy)methyl)-[1,2,4]-triazolo[4,3-a]pyridin-3-yl)-methanesulfonamide], the IC50 came to 2.6 nM.

Another test has as its target hNav1.7 (Homo sapiens (Human), UniProt Q15858). Nature of the test: Tritiated sulfonamide competitive binding to membranes from cells expressing hNav1.7 and the β1 subunit.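 Also: displacement of the tritiated ligand from recombinant cell membranes, read by liquid scintillation counting of filter-bound radioactivity, nonspecific binding defined with 1 µM unlabelled compound.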 As to conditions: 100 pM [3H]compound, 18 h, room temperature; inactivated state of NaV1.7 membrane binding; read-out: NaV1.7 Ligand Binding Assay (IC50).
`CS(=O)(=O)Nc1nnc2cc(COc3ccc(Cl)c(Cl)c3)c(Br)cn12` [Example 55, N-(6-bromo-7-((3,4-dichlorophenoxy)methyl)-[1,2,4]-triazolo[4,3-a]pyridin-3-yl)-methanesulfonamide]: the IC50 came to 2.6 nM.
On to `CC1(S(=O)(=O)Nc2nnc3cc(COc4cc(Cl)cc(OC(F)(F)F)c4)c(C4CC4)cn23)CC1` [Example 104, N-(7-((3-chloro-5-(trifluoromethoxy)phenoxy)methyl)-6-cyclopropyl-[1,2,4]triazolo[4,3-a]pyridin-3-yl)-1-methylcyclopropane-1-sulfonamide], for which the IC50 was found to be 4 nM.
On the same count and under the same terms, the value for `CC1(S(=O)(=O)Nc2nnc3cc(COc4cc(Cl)cc(Cl)c4)c(C4CC4)cn23)CC1` [Example 105, N-(6-cyclopropyl-7-((3,5-dichlorophenoxy)methyl)-[1,2,4]-triazolo[4,3-a]pyridin-3-yl)-1-methylcyclopropane-1-sulfonamide] was 5 nM; that for `CC1(COc2cc3nnc(NS(=O)(=O)C4CC4)n3cc2C2CC2)CCC(F)(F)CC1` [Example 108, N-(6-cyclopropyl-7-((4,4-difluoro-1-methylcyclohexyl)methoxy)-[1,2,4]triazolo[4,3-a]pyridin-3-yl)cyclopropanesulfonamide] was 67 nM.
Same read-out and setting: the value for `CC1(COc2cc3nnc(NS(C)(=O)=O)n3cc2C2CC2)CCN(Cc2cc(Cl)cc(Cl)c2)CC1` [Example 110, N-(6-cyclopropyl-7-((1-(3,5-dichlorobenzyl)-4-methylpiperidin-4-yl)methoxy)-[1,2,4]triazolopyridin-3-yl)methanesulfonamide] was 12 nM.
For the molecule `CC1(COc2cc3nnc(NS(=O)(=O)C4CC4)n3cc2C2CC2)CCN(Cc2cc(Cl)cc(Cl)c2)CC1` [Example 111, N-(6-cyclopropyl-7-((1-(3,5-dichlorobenzyl)-4-methylpiperidin-4-yl)methoxy)-[1,2,4]triazolo[4,3-a]pyridin-3-yl)cyclopropanesulfonamide], the IC50 was determined as 8 nM.
Take `CS(=O)(=O)Nc1nnc2cc(O[C@@H]3CCCN(Cc4ccc(F)cc4Cl)C3)c(C3CC3)cn12` [Example 112, (R)—N-(7-((1-(2-chloro-4-fluorobenzyl)piperidin-3-yl)oxy)-6-cyclopropyl-[1,2,4]triazolo[4,3-a]pyridin-3-yl)methanesulfonamide]: the IC50 amounted to 130 nM.
Same read-out and setting: the value for `O=S(=O)(Nc1nnc2cc(O[C@@H]3CCCN(Cc4ccc(F)cc4Cl)C3)c(C3CC3)cn12)C1CC1` [Example 113, (R)—N-(7-((1-(2-chloro-4-fluorobenzyl)piperidin-3-yl)oxy)-6-cyclopropyl-[1,2,4]triazolo[4,3-a]pyridin-3-yl)cyclopropanesulfonamide] was 34 nM; that for `CC1(COc2cc3nnc(NS(=O)(=O)C4CC4)n3cc2C2CC2)CCC2(CC1)CC2` [Example 114, N-(6-cyclopropyl-7-((6-methylspiro[2.5]octan-6-yl)methoxy)-[1,2,4]triazolo[4,3-a]pyridin-3-yl)cyclopropanesulfonamide] was 8 nM.
`CC1(COc2cc3nnc(NS(C)(=O)=O)n3cc2C2CC2)CCN(C(c2ccccc2)c2ccccc2)CC1` [Example 116, N-(7-((1-benzhydryl-4-methylpiperidin-4-yl)methoxy)-6-cyclopropyl-[1,2,4]triazolo[4,3-a]pyridin-3-yl)methanesulfonamide]: the IC50 was determined as 16 nM.
The same measure, in the same setting: the value for `C[C@@H](c1cc(Cl)cc(Cl)c1)N1CCC(C)(COc2cc3nnc(NS(C)(=O)=O)n3cc2C2CC2)CC1` [Example 117, (S)—N-(6-cyclopropyl-7-((1-(1-(3,5-dichlorophenyl)ethyl)-4-methylpiperidin-4-yl)methoxy)-[1,2,4]triazolo[4,3-a]pyridin-3-yl)methanesulfonamide] was 13 nM.
On the same count and under the same terms, the value for `C[C@H](c1cc(Cl)cc(Cl)c1)N1CCC(C)(COc2cc3nnc(NS(C)(=O)=O)n3cc2C2CC2)CC1` [Example 118, (R)—N-(6-cyclopropyl-7-((1-(1-(3,5-dichlorophenyl)ethyl)-4-methylpiperidin-4-yl)methoxy)-[1,2,4]triazolo[4,3-a]pyridin-3-yl)methanesulfonamide] was 14 nM; that for `C[C@H](c1cc(Cl)cc(Cl)c1)N1CCC(COc2cc3nnc(NS(C)(=O)=O)n3cc2C2CC2)CC1` [Example 119, (R)—N-(6-cyclopropyl-7-((1-(1-(3,5-dichlorophenyl)ethyl)piperidin-4-yl)methoxy)-[1,2,4]triazolo[4,3-a]pyridin-3-yl)methanesulfonamide] was 23 nM; that for `C[C@@H](c1cc(Cl)cc(Cl)c1)N1CCC(COc2cc3nnc(NS(=O)(=O)C4CC4)n3cc2C2CC2)CC1` [Example 121] was 12 nM.
The same measure, in the same setting: the value for `CC12CC3(C)CC(C)(C1)CC(COc1cc4nnc(NS(C)(=O)=O)n4cc1C1CC1)(C2)C3` [Example 122, N-(6-cyclopropyl-7-((3,5,7-trimethyladamantan-1-yl)methoxy)-[1,2,4]triazolo[4,3-a]pyridin-3-yl)methanesulfonamide] was 2 nM; that for `CS(=O)(=O)Nc1nnc2cc(OC[C@@H]3C[C@H]4CC[C@@H](C3)N4C(c3ccccc3)c3ccccc3)c(C3CC3)cn12` [Example 123, N-(7-(((1R,3S,5S)-8-benzhydryl-8-azabicyclo[3.2.1]octan-3-yl)methoxy)-6-cyclopropyl-[1,2,4]triazolo[4,3-a]pyridin-3-yl)methanesulfonamide] was 17 nM; that for `O=S(=O)(Nc1nnc2cc(CN3CCC(Oc4cc(Cl)cc(Cl)c4)CC3)c(C3CC3)cn12)C1CC1` [Example 124, N-(6-cyclopropyl-7-((4-(3,5-dichlorophenoxy)piperidin-1-yl)methyl)-[1,2,4]triazolo[4,3-a]pyridin-3-yl)cyclopropanesulfonamide] was 320 nM.
As for `CCc1cn2c(NS(=O)(=O)N3CCC3)nnc2cc1OCC12CC3CC(CC(C3)C1)C2` [Example 126, N-(7-(adamantan-1-ylmethoxy)-6-ethyl-[1,2,4]triazolo[4,3-a]pyridin-3-yl)azetidine-1-sulfonamide], the IC50 was determined as 31 nM.
On to `O=S(=O)(Nc1nnc2cc(OCC34CC5CC(CC(C5)C3)C4)c(C3CC3)cn12)N1CCC1` [Example 127, N-(7-(adamantan-1-ylmethoxy)-6-cyclopropyl-[1,2,4]triazolo[4,3-a]pyridin-3-yl)azetidine-1-sulfonamide], for which the IC50 worked out at 9 nM.
Still for that read-out and setting: the value for `C=Cc1cn2c(NS(C)(=O)=O)nnc2cc1OCC12CC3CC(CC(C3)C1)C2` [Example 128, N-(7-(adamantan-1-ylmethoxy)-6-vinyl-[1,2,4]triazolo[4,3-a]-pyridin-3-yl)methanesulfonamide] was 45 nM.
